This is an account of results in US9238034B2, “FN14 antagonists and therapeutic uses thereof” (THE TRANSLATIONAL GENOMICS RESEARCH INSTITUTE, priority 2013, dated 2016).

This assay concerns the target T1, Fn14-TWEAK binding (Homo sapiens, UniProt Q9NP84).
T1 construct: the human Fc fragment-tagged Fn14 extracellular domain (R&D Systems) was captured; purchased R&D Systems (Fn14-Fc); Peprotech (recombinant TWEAK)
T1 sequence (Q9NP84 28-80 limits assumed): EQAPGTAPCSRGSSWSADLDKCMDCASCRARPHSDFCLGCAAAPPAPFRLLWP
Nature of the assay: Double sandwich ELISA small molecule screening of TWEAK binding to captured Fn14-Fc. The gist of the method: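 Fn14-Fc (human Fc-tagged extracellular domain) captured on anti-human Fc wells; compounds at 25 μM (0.125% DMSO) preincubated 2 h at room temperature, then TWEAK added to 500 pg/mL final for 2 h. Bound TWEAK detected with biotinylated anti-TWEAK antibody, HRP-streptavidin and chemiluminescence; binding reduction calculated from a per-plate recombinant TWEAK standard curve.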

SMILES strings stand for the structures. Like-named read-outs stand apart in the source and are kept apart here.

For `O=C(c1cn(-c2cccc(Cl)c2)nn1)N1CCSCC1` [Compound L524-0366], the inhibition at 25 µM was determined as 16.9% (Table 4, second screening iteration, 25 μM, average of duplicate, read-out: % Reduction in TWEAK Binding, Average); 18.8% (Table 4, second screening iteration, 25 μM, replicate 1, read-out: % Reduction in TWEAK Binding, Data 1); 14.9% (Table 4, second screening iteration, 25 μM, replicate 2, read-out: % Reduction in TWEAK Binding, Data 2); 16.9% (Table 5, 25 μM, average of duplicate, read-out: % Reduction in TWEAK Binding, Average); 18.8% (Table 5, 25 μM, replicate 1, read-out: % Reduction in TWEAK Binding, Data 1); 14.9% (Table 5, 25 μM, replicate 2, read-out: % Reduction in TWEAK Binding, Data 2).
